Results on seven compounds are retold here after patent publication US8048642B2, “Heme choline esters and uses thereof” (priority 2007, dated 2011).

Assay type in all cases: biochemical
Data set [1] concerns the target T1, apo-horseradish peroxidase (apo-HRP) (Armoracia rusticana, UniProt P00433).
T1 sequence (P00433 31-338): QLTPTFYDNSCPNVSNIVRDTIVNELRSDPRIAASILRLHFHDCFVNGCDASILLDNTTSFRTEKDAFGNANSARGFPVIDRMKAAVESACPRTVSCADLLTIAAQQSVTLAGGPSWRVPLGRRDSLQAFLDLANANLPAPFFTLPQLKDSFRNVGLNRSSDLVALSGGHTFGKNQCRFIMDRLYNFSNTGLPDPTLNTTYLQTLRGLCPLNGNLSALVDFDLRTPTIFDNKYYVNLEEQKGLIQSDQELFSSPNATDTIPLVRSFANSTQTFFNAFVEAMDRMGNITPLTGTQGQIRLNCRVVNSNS
Put plainly: Recombination of heme and apo-HRP, TMB colorimetry. To be noted: heme mixed with 30 pmol apo-horseradish peroxidase, 30 min, background corrected. As for the experimental part:
A 250 μM stock solution of horseradish peroxidase type VI (HRP, Sigma P8375, MW=44000 g/mol) was prepared by solubilizing 11 mg of lyophilized protein in 1 mL 100 mM sodium phosphate, pH 7.0.
Heme was extracted from horseradish peroxidase type VI (Sigma P8375) according to the method of Teale (Biochim. Biophys. Acta 35, 543, (1959)). The resultant apo-HRP was dialyzed into 100 mM sodium phosphate, pH 7.0, with 0.1 mM calcium chloride. The concentration of this stock apo-HRP solution was estimated from absorbance at 280 nm as 30 μM by assuming an extinction coefficient of 20000 cm^−1 M^−1 (Lasagna et al., Biophys. J. 76, 443, (1999)).
Within an hour before performing the peroxidase assay a fresh stock solution of approximately 1 mM heme (MW 652 g/mol) was prepared by first dissolving 38.9 mg heme (Sigma H5533) in 1 mL of 1.0M NaOH and then mixing 100 μL of the resulting solution with 6 mL 100 mM borate buffer, pH 9.1.
The absorbance data in Table 4 was acquired using a SpectraMax M2 plate reader (Molecular Devices) in 96-sample format. The HRP stock solution was diluted serially with 100 mM sodium phosphate, pH 7.0, to make 2000, 500 and 50 pM solutions. 10 μL of each solution was then mixed with 90 μL 3,3′,5,5′-tetramethylbenzidine (TMB) liquid substrate system (Sigma T8665) to define t=0. The absorbance at 650 nm was measured after 30 min and corrected for the absorbance of TMB solution without added HRP.
The heme stock solution was diluted serially with 100 mM borate buffer, pH 9.1, to make 2000 pM, 500 pM, and 50 pM solutions. 10 μL of each solution was first mixed with 1 μL of the apo-HRP stock solution and then immediately mixed with 90 μL TMB liquid substrate system to define t=0. The absorbance at 650 nm was measured after 30 min and corrected for the absorbance of a mixture of apo-HRP and TMB liquid substrate system without added heme.

For data set [2], the target named is butyrylcholine esterase (BCE) (Equus caballus, UniProt P81908). The experiment in a line: Hydrolysis of heme bis choline ester by butyrylcholine esterase, followed by HPLC. To be noted: bis choline ester with BCE (50 units) in phosphate buffer pH 7.0, HPLC at 400 nm. As for the experimental part:
To confirm enzymatic hydrolysis of heme bis choline ester, a sample of bis choline ester in methanol was added to a solution of butyrylcholine esterase (BCE) (50 units) in phosphate buffer (pH 7.0). The progress of the hydrolysis was determined by HPLC analysis of the reaction mixture using a Waters Xterra C18 reverse phase column (4.6×50 mm). A gradient elution was performed starting with 95:5 water (+0.1% TFA):acetonitrile (+0.1% TFA) up to 0:100 over 10 minutes followed by isocratic elution with acetonitrile (+0.1% TFA) for 5 minutes. […] Under these conditions the bis ester elutes first (tR=5.2 min) followed by the monoester (5.9 min) and heme (6.6 min).

For data set [3], the target named is T1, apo-horseradish peroxidase (apo-HRP). Put plainly: Signal enhancement from HRP-based cascade using a chromogenic substrate (TMB). As to conditions: 6 minutes after adding TMB liquid substrate; mixtures pre-incubated 16 hours at room temperature. As for the experimental part:
The samples in Table 2 were prepared from the following stock solutions. A 120 μM stock solution of apo-HRP was prepared by adding 2 mL phosphate-buffered saline (PBS, Pierce 28372) to 10 mg lyophilized apo-HRP (Sigma 6278, MW=43000 g/mol). A 250 μM stock solution of horseradish peroxidase type VI (HRP, Sigma P8375, MW=44000 g/mol) was prepared by solubilizing 11 mg lyophilized protein in 1 mL 100 mM sodium phosphate, pH 7.0. A 1 kU/mL stock solution of butyrylcholine esterase was prepared by dissolving 1 kU lyophilized protein (Sigma C1057) in 1 mL phosphate-buffered saline (PBS, Pierce 28372). […] The 1 cm-path length absorbance of this 10% methanol solution was measured to be 17 absorbance units (au) at 390 nm using a NanoDrop-1000 Spectrophotometer. […]
Samples A1, A2, B1, and B2 were each combined with 95 μL 3,3′,5,5′-tetramethylbenzidine (TMB) liquid substrate system (Sigma T8665), which includes hydrogen peroxide. After 6 minutes OD was determined at 650 nm in a 96-well format using a SpectraMax M2 plate reader (Molecular Devices). These signals are recorded in Table 2 above.
Relative signal enhancement was calculated by subtracting appropriate background signals from wells A1 and A2, and then taking a ratio. […] The calculated signal enhancement is thus equal to (A1−B2)/(A2−B1), which corresponds to (1.05−0.16)/(0.10−0.04)=15. […]

Data set [4] shares this target. Put plainly: Blocking and rescue of peroxidase activity with a chemiluminescent substrate. To be noted: for Rescue of peroxidase activity of apo-HRP plus heme bis choline ester: esterase added to apo-HRP and heme bis choline ester. As for the experimental part: A 1-kU/mL stock solution of butyrylcholine esterase was prepared by dissolving 1 kU of lyophilized protein (Sigma C1057) in 1 mL phosphate-buffered saline (PBS, Pierce 28372). An activity of 900 U per mg protein and MW=250000 g/mol was assumed and the concentration of the resultant solution was estimated as 4 μM.
A 1 kU/mL stock solution of acetylcholine esterase was prepared by dissolving 1 kU lyophilized protein (Sigma C2888) in 1 mL phosphate-buffered saline (PBS, Pierce 28372). An activity of 1000 U per mg protein and MW=280000 g/mol was assumed and the concentration of the resultant solution was estimated as 4 μM.
A fresh 1 mM solution of heme was prepared in 100 mM borate buffer, pH 9.1, as described in Example 5. The 1 cm-path length absorbance of this solution was measured to be 40 at 390 nm using a NanoDrop-1000 Spectrophotometer (NanoDrop Technologies). A 0.1 mM heme solution was then prepared by mixing 100 μL of this stock with 900 μL in PBS.
Less than 1 mg heme bis choline ester was dissolved in 100 μL methanol. 10 μL of the methanol solution was then mixed with 90 μL 100 mM borate buffer, pH 9.1. The 1 cm-path length absorbance of this 10% methanol solution was measured to be 17 absorbance units (au) at 390 nm using a NanoDrop-1000 Spectrophotometer. Assuming the extinction coefficient of heme bis choline ester in 10% methanol was not substantially different than that of heme in PBS, a 0.1 mM solution of heme bis choline ester was then prepared by mixing 23.5 μL of the 10% methanol solution with 77.5 μL PBS.
Solutions of 0.3 μM apo-HRP, 10 μM heme and 10 μM heme bis choline ester in PBS were prepared by dilution of these stock solutions with PBS. […]
90 μL of freshly mixed chemiluminescent substrate (Sigma CPS260, an enhanced luminol product with a stabilized peroxide buffer solution) was added to reaction mixtures 1-6, which were allowed to incubate at room temperature for 5 minutes and the luminescence units (LU) for each was determined with a SpectraMax M2 plate reader in a 96-well format (Molecular Devices), shown below in Table 5.

butyrylcholine esterase (BCE), sequence (P81908 whole entry): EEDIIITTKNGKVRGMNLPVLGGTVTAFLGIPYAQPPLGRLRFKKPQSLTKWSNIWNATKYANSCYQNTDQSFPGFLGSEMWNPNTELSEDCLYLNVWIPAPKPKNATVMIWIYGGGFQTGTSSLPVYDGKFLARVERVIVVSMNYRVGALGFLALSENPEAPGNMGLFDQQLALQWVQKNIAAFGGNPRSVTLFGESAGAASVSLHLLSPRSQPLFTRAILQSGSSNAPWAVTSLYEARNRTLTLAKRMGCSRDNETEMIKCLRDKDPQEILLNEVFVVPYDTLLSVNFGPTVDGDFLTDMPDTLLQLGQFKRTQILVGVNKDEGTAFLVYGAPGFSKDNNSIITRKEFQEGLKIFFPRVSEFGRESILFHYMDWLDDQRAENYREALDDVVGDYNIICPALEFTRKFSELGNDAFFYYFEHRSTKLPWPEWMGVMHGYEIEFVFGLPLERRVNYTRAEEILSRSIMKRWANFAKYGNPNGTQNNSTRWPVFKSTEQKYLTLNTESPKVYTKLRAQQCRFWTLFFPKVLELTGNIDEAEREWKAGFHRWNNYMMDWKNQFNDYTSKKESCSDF

With `C=CC1=C(C)c2cc3[n-]c(cc4[n-]c(cc5nc(cc1n2)C(C)=C5C=C)c(C)c4CCC(=O)O)c(CCC(=O)O)c3C.[Fe+2]` [Heme, heme], the “OD 650 nm” value in data set [1] (5 fmol) is recorded as 0.07; in data set [1] (20 fmol), 0.79. Further, the figures for the “HPLC peak area (hydrolysis progress)” value in data set [2] (0.75 hr), in data set [2] (2.75 hr) and in data set [2] (21 hr) were 7 AUC units, 12 AUC units and 21 AUC units, respectively.

Turning to “A2: 5 μL of 0.13 nM HRP (0.7 fmol) [Sample A2]”, the “OD 650 nm” value in data set [3] worked out at 0.10.

Consider “BCE: butyrylcholine esterase (Sigma C1057)”, for which, in data set [4], the “Rescue of peroxidase activity of apo-HRP plus heme bis choline ester” value was “rescued”.

Consider “acetylcholine esterase: acetylcholine esterase (Sigma C2888)”, for which the “Rescue of peroxidase activity of apo-HRP plus heme bis choline ester” value in data set [4] was “did not demonstrably rescue peroxidase activity”.

With heme bis choline ester [Bis ester], the “Hydrolysis vs. Time, converted to concentration” value in data set [2] (0 hr) is recorded as 100 AUC units; in data set [2] (0.75 hr), 60 AUC units; in data set [2] (2.75 hr), 52 AUC units; in data set [2] (21 hr) it was 41 AUC units. Further, the “Peroxidase activity of mixture with apo-HRP compared with heme” value in data set [4] (sample 1 versus sample 4, 10-fold excess of heme bis choline ester) is listed as “less peroxidase activity”.

On to heme mono choline ester [Mono ester], for which the “Hydrolysis vs. Time, converted to concentration” value in data set [2] (0.75 hr) is reported as 28 AUC units; in data set [2] (2.75 hr) it was 29 AUC units; in data set [2] (21 hr) it was 24 AUC units.

Regarding “horseradish peroxidase: horseradish peroxidase type VI (Sigma P8375)”, the results for the “OD 650 nm” value in data set [1] (5 fmol) and in data set [1] (20 fmol) were 0.88 and 3.4, respectively.
